Test results taken from paper PMC5501099 (Malaria Journal, 2017).

What was measured:
[1] = Population pharmacokinetic model of ivermectin in healthy Thai volunteers; format: in vivo, human; settings: single oral 200 µg/kg
Protocol: The first-order conditional estimation method with interaction was used throughout model development. Model diagnostics and automation were performed using Xpose version 4.0 [25], Pirana and Pearl-speaks-NONMEM (PsN; version 3.6.0). The objective function value (OFV; calculated by NONMEM as proportional to −2 × loglikelihood of data) was used to discriminate between hierarchical models. A difference between two models (ΔOFV) of >3.84 and >10.83 were considered statistically significant at a P value of <0.05 and <0.001, respectively. Models were assessed using standard goodness-of-fit and simulation-based diagnostics (i.e. numerical and visual predictive checks using 2000 simulations). The robustness of the final model was evaluated by bootstrapping (n = 1000).
Different disposition models (one-, two- and three-compartment models) and absorption models (first-order and transit models) were evaluated to describe the pharmacokinetic structural model of ivermectin. Pharmacokinetic parameters were assumed to be log-normally distributed and inter-individual variability was implemented as exponential functions. […] The influence of other individual covariates including gender, age, haemoglobin, haematocrit, total bilirubin, direct bilirubin, alkaline phosphatase, aspartate aminotransferase, and alanine aminotransferase, serum creatinine, blood urea nitrogen, and albumin level were investigated using a stepwise covariate approach (P value <0.05 and <0.001 for forward and backward addition and deletion, respectively).
There were no observations reported to be below the lower limit of quantification. […] A flexible transit absorption model (n = 2) improved the model fit substantially compared to the first-order absorption (∆OFV = −378). […] Implementing body weight as a covariate in the model also allowed for translation and interpretation to other study populations.

An. gambiae = settings: ivermectin MDAs in Senegal at 150 µg/kg, for up to 6 days post MDA; cited from earlier work
[2] = cited from earlier work
[3] = set-up: method as in earlier work; settings: humans, n = 4; cited from earlier work
Anopheles sawadwongporni = test: Ivermectin lethal concentration / survivorship, membrane blood feeding; format: in vivo; settings: An. sawadwongporni
Protocol: (§1) Powdered formulation of ivermectin compound was obtained from Sigma-Aldrich (St. Louis, USA). […] Control blood meals consisted of previously frozen DMSO diluted in PBS to match the ratio of DMSO and PBS fed to mosquitoes in the ivermectin-containing blood meals.
(§2) After blood feeding via a membrane feeder, unfed mosquitoes were removed and discarded. Blood-fed mosquitoes were held in 3.5-l plastic containers with access to 10% sucrose and kept in an incubator at 25 ± 1 °C and 70 ± 10% relative humidity, on a 12 h light:12 h dark photoperiod. Mosquito survivorship was monitored for 7 days, every 24 h dead mosquitoes were removed and recorded, and on day 7 all remaining mosquitoes were frozen and counted as alive.
(§3) A non-linear mixed effects model with probit analysis was used to calculate LC50, LC25 and LC5 values with Statistical Analysis Software (SAS Institute Inc, Cary, NC, USA) as described previously. Hazard ratios for mosquito mortality at day 7 post blood meal were calculated using Poisson regression analysis with STATA version 12.1 (StataCorp LLC, College Station, TX, USA). Oocyst and sporozoite prevalence (i.e. proportion of infected mosquitoes) was compared by Fishers Exact test. Oocyst intensity (i.e. number of oocysts per infected mosquito) was compared by the Mann–Whitney U test. To determine if P. vivax infection altered mosquito survivorship post-ivermectin ingestion survival data were analysed by the Mantel–Cox method. The Fishers Exact, Mann–Whitney U, and survival analysis data were analysed with Prism 7 (GraphPad Software Inc, San Diego, CA, USA).

Anopheles minimus = test: as above; format: in vivo; settings: An. minimus
Protocol: as §1, §2, §3

Anopheles campestris = test: as above; format: in vivo; settings: An. campestris
Protocol: as §1, §2, §3

[4] = 23 healthy Thai volunteers, plasma data of trial [24]
[5] = post hoc estimate, median (interquartile range)

ivermectin
MTT mean transit absorption time, population estimate (%RSE) [1, 4]: 0.496 (17.1) h
ka absorption rate constant, population estimate (%RSE) [1, 4]: 0.317 (3.97) h^−1
IIV of CL/F (%RSE) ([1]; healthy Thai volunteers): 23.1 (25.2) %CV
IIV of F relative bioavailability (%RSE) ([1]; healthy Thai volunteers): 10.7 (42.9) %CV
IIV of MTT (%RSE) ([1]; healthy Thai volunteers): 56.1 (36.2) %CV
IIV of VP/F (%RSE) ([1]; healthy Thai volunteers): 22.8 (36.0) %CV
CL/F apparent oral elimination clearance, population estimate (%RSE) ([1]; healthy Thai volunteers, allometric scaling centred on 55 kg): 9.02 (5.49) l/h
Q/F apparent inter-compartmental clearance, population estimate (%RSE) ([1]; healthy Thai volunteers, centred on 55 kg): 16.2 (5.34) l/h
AUC0–168 [1, 5]: 1331 (919–1406) ng × h/ml
Cmax [1, 5]: 45.7 (40.3–46.9) ng/ml
Terminal half-life [1, 5]: 25.0 (23.7–29.5) h
Tmax [1, 5]: 4.76 (4.67–5.04) h
An. gambiae 5-day survivorship reduced by (An. gambiae): 43.6%
Safety of repeated administration ([2]; 400 µg/kg every two weeks for 12 weeks, adults, Sri Lanka and Brazil): safe
Safety and tolerability ([2]; doses up to 2000 µg/kg, healthy volunteers): safe and well tolerated
Parent compound half-life [3]: 11.8 h
LC5 (Anopheles sawadwongporni; 7 days post blood meal): 16.1 ng/mL
LC25 (Anopheles sawadwongporni; 7 days post blood meal): 0.0218 µg/mL
LC50 (Anopheles sawadwongporni; 7 days post blood meal): 0.0269 µg/mL
IRR (Incidence Rate Ratio of mortality at day 7, treatment group divided by control group) (Anopheles sawadwongporni; ivermectin imbibed 4 ng/ml): 0.3
IRR (Incidence Rate Ratio of mortality at day 7, treatment group divided by control group) (Anopheles sawadwongporni; ivermectin imbibed 5 ng/ml): 1.3
IRR (Incidence Rate Ratio of mortality at day 7, treatment group divided by control group) (Anopheles sawadwongporni; ivermectin imbibed 6 ng/ml): 0.3
IRR (Incidence Rate Ratio of mortality at day 7, treatment group divided by control group) (Anopheles sawadwongporni; ivermectin imbibed 8 ng/ml): 0.6
IRR (Incidence Rate Ratio of mortality at day 7, treatment group divided by control group) (Anopheles sawadwongporni; ivermectin imbibed 10 ng/ml): 1.1
IRR (Incidence Rate Ratio of mortality at day 7, treatment group divided by control group) (Anopheles sawadwongporni; ivermectin imbibed 12 ng/ml): 0.9
IRR (Incidence Rate Ratio of mortality at day 7, treatment group divided by control group) (Anopheles sawadwongporni; ivermectin imbibed 15 ng/ml): 2.1
IRR (Incidence Rate Ratio of mortality at day 7, treatment group divided by control group) (Anopheles sawadwongporni; ivermectin imbibed 18 ng/ml): 2.1
IRR (Incidence Rate Ratio of mortality at day 7, treatment group divided by control group) (Anopheles sawadwongporni; ivermectin imbibed 20 ng/ml): 2.7
IRR (Incidence Rate Ratio of mortality at day 7, treatment group divided by control group) (Anopheles sawadwongporni; ivermectin imbibed 22 ng/ml): 2.3
IRR (Incidence Rate Ratio of mortality at day 7, treatment group divided by control group) (Anopheles sawadwongporni; ivermectin imbibed 25 ng/ml): 5.3
IRR (Incidence Rate Ratio of mortality at day 7, treatment group divided by control group) (Anopheles sawadwongporni; ivermectin imbibed 28 ng/ml): 5.2
IRR (Incidence Rate Ratio of mortality at day 7, treatment group divided by control group) (Anopheles sawadwongporni; ivermectin imbibed 30 ng/ml): 8.0
IRR (Incidence Rate Ratio of mortality at day 7, treatment group divided by control group) (Anopheles sawadwongporni; ivermectin imbibed 35 ng/ml): 8.4
IRR (Incidence Rate Ratio of mortality at day 7, treatment group divided by control group) (Anopheles sawadwongporni; ivermectin imbibed 40 ng/ml): 9.4
LC5 (Anopheles minimus; 7 days post blood meal): 6.7 ng/mL
LC25 (Anopheles minimus; 7 days post blood meal): 0.0113 µg/mL
LC50 (Anopheles minimus; 7 days post blood meal): 0.0163 µg/mL
IRR (Incidence Rate Ratio of mortality at day 7, treatment group divided by control group) (Anopheles minimus; ivermectin imbibed 1 ng/ml): 2.7
IRR (Incidence Rate Ratio of mortality at day 7, treatment group divided by control group) (Anopheles minimus; ivermectin imbibed 2 ng/ml): 0.5
IRR (Incidence Rate Ratio of mortality at day 7, treatment group divided by control group) (Anopheles minimus; ivermectin imbibed 3 ng/ml): 1.8
IRR (Incidence Rate Ratio of mortality at day 7, treatment group divided by control group) (Anopheles minimus; ivermectin imbibed 4 ng/ml): 2.9
IRR (Incidence Rate Ratio of mortality at day 7, treatment group divided by control group) (Anopheles minimus; ivermectin imbibed 5 ng/ml): 3.6
IRR (Incidence Rate Ratio of mortality at day 7, treatment group divided by control group) (Anopheles minimus; ivermectin imbibed 6 ng/ml): 1.3
IRR (Incidence Rate Ratio of mortality at day 7, treatment group divided by control group) (Anopheles minimus; ivermectin imbibed 8 ng/ml): 2.8
IRR (Incidence Rate Ratio of mortality at day 7, treatment group divided by control group) (Anopheles minimus; ivermectin imbibed 10 ng/ml): 3.8
IRR (Incidence Rate Ratio of mortality at day 7, treatment group divided by control group) (Anopheles minimus; ivermectin imbibed 12 ng/ml): 4.6
IRR (Incidence Rate Ratio of mortality at day 7, treatment group divided by control group) (Anopheles minimus; ivermectin imbibed 15 ng/ml): 5.8
IRR (Incidence Rate Ratio of mortality at day 7, treatment group divided by control group) (Anopheles minimus; ivermectin imbibed 18 ng/ml): 7.0
IRR (Incidence Rate Ratio of mortality at day 7, treatment group divided by control group) (Anopheles minimus; ivermectin imbibed 20 ng/ml): 9.5
IRR (Incidence Rate Ratio of mortality at day 7, treatment group divided by control group) (Anopheles minimus; ivermectin imbibed 25 ng/ml): 9.0
IRR (Incidence Rate Ratio of mortality at day 7, treatment group divided by control group) (Anopheles minimus; ivermectin imbibed 28 ng/ml): 10.5
IRR (Incidence Rate Ratio of mortality at day 7, treatment group divided by control group) (Anopheles minimus; ivermectin imbibed 30 ng/ml): 11.5
LC5 (Anopheles campestris; 7 days post blood meal): 11.7 ng/mL
LC25 (Anopheles campestris; 7 days post blood meal): 0.0189 µg/mL
LC50 (Anopheles campestris; 7 days post blood meal): 0.0264 µg/mL
IRR (Incidence Rate Ratio of mortality at day 7, treatment group divided by control group) (Anopheles campestris; ivermectin imbibed 3 ng/ml): 0.8
IRR (Incidence Rate Ratio of mortality at day 7, treatment group divided by control group) (Anopheles campestris; ivermectin imbibed 4 ng/ml): 1.7
IRR (Incidence Rate Ratio of mortality at day 7, treatment group divided by control group) (Anopheles campestris; ivermectin imbibed 5 ng/ml): 1.4
IRR (Incidence Rate Ratio of mortality at day 7, treatment group divided by control group) (Anopheles campestris; ivermectin imbibed 6 ng/ml): 1.0
IRR (Incidence Rate Ratio of mortality at day 7, treatment group divided by control group) (Anopheles campestris; ivermectin imbibed 8 ng/ml): 1.2
IRR (Incidence Rate Ratio of mortality at day 7, treatment group divided by control group) (Anopheles campestris; ivermectin imbibed 10 ng/ml): 1.0
IRR (Incidence Rate Ratio of mortality at day 7, treatment group divided by control group) (Anopheles campestris; ivermectin imbibed 15 ng/ml): 1.8
IRR (Incidence Rate Ratio of mortality at day 7, treatment group divided by control group) (Anopheles campestris; ivermectin imbibed 18 ng/ml): 2.7
IRR (Incidence Rate Ratio of mortality at day 7, treatment group divided by control group) (Anopheles campestris; ivermectin imbibed 20 ng/ml): 2.5
IRR (Incidence Rate Ratio of mortality at day 7, treatment group divided by control group) (Anopheles campestris; ivermectin imbibed 22 ng/ml): 3.4
IRR (Incidence Rate Ratio of mortality at day 7, treatment group divided by control group) (Anopheles campestris; ivermectin imbibed 25 ng/ml): 3.4
IRR (Incidence Rate Ratio of mortality at day 7, treatment group divided by control group) (Anopheles campestris; ivermectin imbibed 30 ng/ml): 2.5
IRR (Incidence Rate Ratio of mortality at day 7, treatment group divided by control group) (Anopheles campestris; ivermectin imbibed 35 ng/ml): 2.5
IRR (Incidence Rate Ratio of mortality at day 7, treatment group divided by control group) (Anopheles campestris; ivermectin imbibed 45 ng/ml): 4.9
IRR (Incidence Rate Ratio of mortality at day 7, treatment group divided by control group) (Anopheles campestris; ivermectin imbibed 50 ng/ml): 5.3
